The values that follow come from patent US5236900A, “Anti-fungal agents” (Schering Corporation, priority 1991, dated 1993).

The subject of test [1] is Resistant strains: Candida albicans C79, C6, C8, C31, C54, C70, C104, C138, C140; Candida stellatoidea C45. Briefly: Microtiter minimum inhibitory concentration (MIC) test, resistant strains. Format: cell-based. The conditions noted are these: geometric mean of MICs against resistant strains; YNB pH 5.4, 37° C., 48 hours.
Procedure: (§1) In vitro anti-fungal activity was determined in microtiter minimum inhibitory concentration (MIC) tests using Yeast Nitrogen Broth (YNB without amino acids, Difco., Detroit, Mich.) at pH 5.4. Yeasts were grown overnight in Sabouraud Dextrose Broth at 28° C. with shaking, and concentrations adjusted in sterile saline using a spectrophoptometer at 540 mμ. Compounds were dissolved in various vehicles and diluted in media to twice the final concentrations. The Cetus Pro/Pette system was used to serially dilute 50 μl in round bottom 96 well plates (Falcon, Lincoln Park, N.J.). The turbidometrically adjusted yeast suspensions were diluted 1:3,000 in YNB. These dilutions when added to the wells, produced a final inoculum of 3×10^3 /ml. Plates were incubated at 37° C. for 48 hours. MICs were defined as the lowest concentrations of compound that prevented visible growth. MICs were taken against the following organisms and expressed in the table above as the geometric mean.
Test [2] concerns Sensitive strains: Candida albicans C141, Candida sp. C2, Candida sp. C109, Candida parapsilosis C67, Candida tropicalis C112, Torulopsis glabrata C95, Candida …. The test is described as follows: Microtiter minimum inhibitory concentration (MIC) test, sensitive strains. The class given is cell-based, Candida spp., Sacchararomyces. The conditions noted are these: geometric mean of MICs against sensitive strains; YNB pH 5.4, 37° C., 48 hours.
Procedure: as §1
Candida pseudotropicalis C 967
Candida guillermondii C137
Sacchararomyces mutant C147

In test [1], “6'-Dodecylamido-5-N-L-Valinyl-UPOC [Compound 3]” came in with an MIC-R of 17 µg/mL. In addition, in test [2], the MIC-S came out at 26 µg/mL.
